# Data reported in article doi:10.1101/2024.12.01.626272v1 (biorxiv, 2024).
# Molecular target: T1, olaAHR2a (Oryzias latipes, UniProt A0A2I4U6J3)
# T1 sequence (A0A2I4U6J3 1-904): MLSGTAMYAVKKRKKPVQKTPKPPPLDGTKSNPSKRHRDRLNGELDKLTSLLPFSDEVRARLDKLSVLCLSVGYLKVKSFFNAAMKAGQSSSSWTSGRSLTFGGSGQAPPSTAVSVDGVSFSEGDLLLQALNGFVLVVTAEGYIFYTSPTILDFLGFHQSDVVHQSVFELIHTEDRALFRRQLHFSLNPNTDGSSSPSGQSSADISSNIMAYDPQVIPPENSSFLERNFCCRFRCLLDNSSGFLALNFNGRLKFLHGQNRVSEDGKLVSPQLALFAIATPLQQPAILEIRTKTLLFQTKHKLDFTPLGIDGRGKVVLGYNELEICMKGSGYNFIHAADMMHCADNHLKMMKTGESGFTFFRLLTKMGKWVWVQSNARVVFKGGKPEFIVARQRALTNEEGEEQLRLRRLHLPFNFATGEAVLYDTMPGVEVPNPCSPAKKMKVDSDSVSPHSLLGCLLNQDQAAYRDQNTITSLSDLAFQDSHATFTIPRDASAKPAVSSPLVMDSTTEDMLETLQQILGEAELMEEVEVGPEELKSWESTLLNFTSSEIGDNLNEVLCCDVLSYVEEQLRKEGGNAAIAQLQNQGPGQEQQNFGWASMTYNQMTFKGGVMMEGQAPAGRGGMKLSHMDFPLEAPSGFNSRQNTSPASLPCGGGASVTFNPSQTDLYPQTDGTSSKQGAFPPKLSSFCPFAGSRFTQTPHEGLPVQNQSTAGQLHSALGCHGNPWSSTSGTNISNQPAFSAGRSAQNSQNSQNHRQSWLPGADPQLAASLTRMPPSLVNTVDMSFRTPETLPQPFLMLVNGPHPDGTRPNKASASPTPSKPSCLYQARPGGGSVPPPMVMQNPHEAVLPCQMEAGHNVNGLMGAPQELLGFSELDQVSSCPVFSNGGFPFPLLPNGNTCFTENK
# Assay: luciferase reporter transactivation
# Assay type: cell-based
compound,measurement,value
O=c1cc(-c2ccccc2)oc2ccc3ccccc3c12 [BNF],EC50,19.4 ± 1.98 nM
